Measured values taken from article PMC9271048, “Probing strigolactone perception mechanisms with rationally designed small-molecule agonists stimulating germination of root parasitic weeds” (Nature Communications, 2022).
Read-outs that look alike come from different tables or passages of the source.

Experiments:
ShHTL7 [1] = biological target: T1, ShHTL7 (Striga hermonthica, UniProt A0A0M3PNA2); assay: biochemical; assay type: binding
Experimental: We used a sensitive, high-throughput Surface plasmon resonance (SPR) method to examine the binding affinities of the 51 candidates to the recombinant ShHTL7 protein, which was immobilized on the CM5 sensor chip. rac-GR24 was used as a positive control.
The interactions of small molecules with recombinant ShHTL7 were evaluated using the Biacore T200 system (GE Healthcare, USA) at 25 °C[47]. The purified ShHTL7 protein was immobilized on a CM5 sensor chip using the standard amine coupling procedure. […] PBS-P (10 mM phosphate buffer, 2.7 mM KCl, 137 mM NaCl, 0.05% Surfactant P20) containing 0.5% DMSO was used as the running buffer. For the screening experiments, candidates with different structures at 50 μM in the running buffer were injected individually at a flow rate of 30 μL min^−1. For binding affinity studies, compounds with different concentrations in running buffer were used. During the experiments, both the contact and dissociation times were set as 1 min. Data analysis was performed using the Biacore Evaluation Software (T200 Version 2.0). The affinity values (KD) were obtained by the kinetics analysis or the steady-state affinity method.

[2] = tested on: ShHTLs (10 HTL proteins in S. hermonthica); assay: YLG-based competition assay on HTL proteins of S. hermonthica; assay type: biochemical, Striga hermonthica; conditions: Supplementary Fig. 27
Text: In P. aegyptiaca, 5 KAI2s have been proposed as the SL receptors for the regulation of seed germination. […] The high sequence similarity may explain the consistency of these compounds in inducing germination in both S. hermonthica and P. aegyptiaca.
The excitation and emission wavelengths of YLG are 480 and 520 nm, respectively. We used a fluorescence spectrophotometer (CARY Eclipse) to detect the fluorescence intensity change of YLG during the enzymatic hydrolysis assay process. All the testing compounds and YLG were dissolved in DMSO and prepared as stock solutions just before use. […] The changes of fluorescence at 520 nm of each well were recorded every 1 min for 30 min. Using the reaction mixture without adding enzyme and tested compounds as the background control. After subtracting the background hydrolysis, a linear fluorescence increase in 8 min was used for further inspection. The IC50 values were determined via fitting relative inhibition percentages with the varying concentrations of compounds in Microsoft Excel.
Supplementary Fig. 27. Binding of compounds 4a, (R)- and (S)-4a, and 4g-i to the HTL proteins in S. hermonthica and KAI2 protein homologs in P. aegyptiaca. In the competitive inhibitory activity assay, YLG (3 µM) was used as the fluorogenic substrate. Error bar indicates SD (n = 3 biologically independent experiments).
(§1) (1 picture or pasted object on this page, not shown here)

ShHTL7 [3] = biological target: T1, ShHTL7; assay: ShHTL7-hydrolysis reaction analysis (HPLC); assay type: biochemical; conditions: 10 μM compound, 30 °C, 30 min; for relative percentage of hydrolysis by ShHTL7, source data average: Supplementary Figs. 11, 20a, 24a
Experimental: Compounds 4a, (R)- and (S)-4a, 4g-i, and rac-GR24 were dissolved in DMSO and prepared as stock solution ([…]) just before use. A 200 μL of the reaction solution consisting of PBS buffer (pH 7.3), 10 μM samples, and 10 μg recombinant ShHTL7 or its mutants was incubated at 30 °C for 30 min; with the reaction solution (200 μL) containing PBS buffer (pH 7.3) and 10 μM samples as the blank control[40],[52]. Subsequently, the reaction was terminated by adding 200 μL of methanol, and then the reaction mixture was shaken for 10 s and centrifuged at 5310 × g for 60 s. The supernatant was filtered and the remaining amount of samples was analyzed by HPLC. The relative percentages of hydrolysis were obtained by using the amount of compounds in blank control as reference.
Supplementary Fig. 11. Hydrolysis of 4a, (R)-4a, (S)-4a, 4g-i, and rac-GR24 by ShHTL7 at 30 °C for 30 min. The remaining amounts of compounds in recombinant ShHTL7 protein and buffer solution were determined by HPLC analysis. The relative percentages of hydrolysis were calculated by using the amount of compounds in the buffer as reference. The error bar indicates SD (n = 3 biologically independent experiments).
as §1

[4] = Supplementary Table 7, binding affinities between ShHTL7 and agonists by SPR, read-out: KD/μM
[5] = ShHTL2, YLG competition, read-out: IC50, replicate 1
[6] = ShHTL2, YLG competition, read-out: IC50, replicate 2
[7] = ShHTL2, YLG competition, read-out: IC50, replicate 3
[8] = ShHTL2, average of 3 replicates, read-out: IC50, average
[9] = ShHTL3, YLG competition, read-out: IC50, replicate 1
[10] = ShHTL3, YLG competition, read-out: IC50, replicate 2
[11] = ShHTL3, YLG competition, read-out: IC50, replicate 3
[12] = ShHTL3, average of 3 replicates, read-out: IC50, average
[13] = ShHTL4, YLG competition, read-out: IC50, replicate 1
[14] = ShHTL4, YLG competition, read-out: IC50, replicate 2
[15] = ShHTL4, YLG competition, read-out: IC50, replicate 3
[16] = ShHTL4, average of 3 replicates, read-out: IC50, average
[17] = ShHTL5, YLG competition, read-out: IC50, replicate 1
[18] = ShHTL5, YLG competition, read-out: IC50, replicate 2
[19] = ShHTL5, YLG competition, read-out: IC50, replicate 3
[20] = ShHTL5, average of 3 replicates, read-out: IC50, average
[21] = ShHTL6, YLG competition, read-out: IC50, replicate 1
[22] = ShHTL6, YLG competition, read-out: IC50, replicate 2
[23] = ShHTL6, YLG competition, read-out: IC50, replicate 3
[24] = ShHTL6, average of 3 replicates, read-out: IC50, average
[25] = ShHTL8, YLG competition, read-out: IC50, replicate 1
[26] = ShHTL8, YLG competition, read-out: IC50, replicate 2
[27] = ShHTL8, YLG competition, read-out: IC50, replicate 3
[28] = ShHTL8, average of 3 replicates, read-out: IC50, average
[29] = ShHTL9, YLG competition, read-out: IC50, replicate 1
[30] = ShHTL9, YLG competition, read-out: IC50, replicate 2
[31] = ShHTL9, YLG competition, read-out: IC50, replicate 3
[32] = ShHTL9, average of 3 replicates, read-out: IC50, average
[33] = ShHTL10, YLG competition, read-out: IC50, replicate 1
[34] = ShHTL10, YLG competition, read-out: IC50, replicate 2
[35] = ShHTL10, YLG competition, read-out: IC50, replicate 3
[36] = ShHTL10, average of 3 replicates, read-out: IC50, average
[37] = ShHTL11, YLG competition, read-out: IC50, replicate 1
[38] = ShHTL11, YLG competition, read-out: IC50, replicate 2
[39] = ShHTL11, YLG competition, read-out: IC50, replicate 3
[40] = ShHTL11, average of 3 replicates, read-out: IC50, average

T1 sequence (A0A0M3PNA2 entry or part of it): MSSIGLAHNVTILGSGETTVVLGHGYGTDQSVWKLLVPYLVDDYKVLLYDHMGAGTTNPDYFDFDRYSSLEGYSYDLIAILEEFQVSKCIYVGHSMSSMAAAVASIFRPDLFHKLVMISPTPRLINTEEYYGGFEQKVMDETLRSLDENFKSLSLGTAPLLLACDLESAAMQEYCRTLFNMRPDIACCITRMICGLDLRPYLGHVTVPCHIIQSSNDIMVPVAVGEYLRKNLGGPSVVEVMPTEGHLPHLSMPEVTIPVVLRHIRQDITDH

Structure (SMILES)	IC50 [2, 5]	IC50 [2, 6]	IC50 [2, 7]	IC50 [2, 8]	IC50 [2, 9]	IC50 [2, 10]	IC50 [2, 11]	IC50 [2, 12]	IC50 [2, 13]	IC50 [2, 14]	IC50 [2, 15]	IC50 [2, 16]	IC50 [2, 17]	IC50 [2, 18]	IC50 [2, 19]	IC50 [2, 20]	IC50 [2, 21]	IC50 [2, 22]	IC50 [2, 23]	IC50 [2, 24]	further results
CC1=C[C@H](O/C=C2/C(=O)O[C@@H]3c4ccccc4C[C@H]23)OC1=O (racemic) [rac-GR24, reference compound]	26.2 µM	25.2 µM	25.5 µM	25.7 µM	9.4 µM	7.11 µM	8.7 µM	8.4 µM	0.239 µM	0.239 µM	0.28 µM	0.253 µM	5.89 µM	6.85 µM	6.74 µM	6.49 µM	2.28 µM	1.87 µM	2.23 µM	2.13 µM	Kd (ShHTL7 [1]; [4]): 0.93 ± 0.17 µM; Kd (ShHTL7 [1]; recombinant ShHTL7 immobilized on CM5 chip, 25 °C, read-out: KD (SPR)): ~0.93 µM; IC50 [2, 25]: 6.15 µM; IC50 [2, 26]: 6.78 µM; IC50 [2, 27]: 4.51 µM; IC50 [2, 28]: 5.81 µM; IC50 [2, 29]: 4.91 µM; IC50 [2, 30]: 4.06 µM; IC50 [2, 31]: 5.17 µM; IC50 [2, 32]: 4.71 µM; IC50 [2, 33]: 4.93 µM; IC50 [2, 34]: 6.56 µM; IC50 [2, 35]: 5.51 µM; IC50 [2, 36]: 5.67 µM; IC50 [2, 37]: 3.27 µM; IC50 [2, 38]: 3.14 µM; IC50 [2, 39]: 3.16 µM; IC50 [2, 40]: 3.19 µM; hydrolysis by ShHTL7 (ShHTL7 [3]): 51.9%; relative percentage of hydrolysis by ShHTL7, source data average (ShHTL7 [3]): 51.9391%
CC1=CC(OC(=O)N2CCN(C(=O)COc3ccc(Br)cc3C)CC2)OC1=O (centres unmarked) [4a]	56.1 µM	49 µM	62.1 µM	55.8 µM	43.3 µM	41.4 µM	44.5 µM	43 µM	6.23 µM	4.7 µM	3.91 µM	4.95 µM	18.6 µM	15.2 µM	13.3 µM	15.7 µM	28.4 µM	23.6 µM	18.4 µM	23.5 µM	Kd (ShHTL7 [1]): 2.07 ± 0.51 µM; IC50 [2, 25]: 14.7 µM; IC50 [2, 26]: 15.3 µM; IC50 [2, 27]: 21.5 µM; IC50 [2, 28]: 17.2 µM; IC50 [2, 29]: 20.4 µM; IC50 [2, 30]: 21.8 µM; IC50 [2, 31]: 26.6 µM; IC50 [2, 32]: 22.9 µM; IC50 [2, 33]: 31.1 µM; IC50 [2, 34]: 39.7 µM; IC50 [2, 35]: 31 µM; IC50 [2, 36]: 33.9 µM; IC50 [2, 37]: 9.32 µM; IC50 [2, 38]: 9.73 µM; IC50 [2, 39]: 13.1 µM; IC50 [2, 40]: 10.7 µM; hydrolysis by ShHTL7 (ShHTL7 [3]): 36.4%; relative percentage of hydrolysis by ShHTL7, source data average (ShHTL7 [3]): 36.438%
CC1=CC(OC(=O)N2CCN(C(=O)COc3ccc(Br)cc3C)CC2)CC1=O (centres unmarked) [4g]	65.2 µM	66 µM	64.5 µM	65.2 µM	40.5 µM	33.3 µM	28.5 µM	34.1 µM	19.2 µM	17.8 µM	16.1 µM	17.7 µM	40.1 µM	35.7 µM	41.8 µM	39.2 µM	53 µM	37.4 µM	61.5 µM	50.6 µM	Kd (ShHTL7 [1]): 34.8 ± 3.9 µM; IC50 [2, 25]: 61 µM; IC50 [2, 26]: 62 µM; IC50 [2, 27]: 51.8 µM; IC50 [2, 28]: 58.3 µM; IC50 [2, 29]: 31.2 µM; IC50 [2, 30]: 38.7 µM; IC50 [2, 31]: 46.2 µM; IC50 [2, 32]: 38.7 µM; IC50 [2, 33]: 49.6 µM; IC50 [2, 34]: 54.6 µM; IC50 [2, 35]: 55.2 µM; IC50 [2, 36]: 53.1 µM; IC50 [2, 37]: 55.9 µM; IC50 [2, 38]: 54.7 µM; IC50 [2, 39]: 58.2 µM; IC50 [2, 40]: 56.3 µM; relative percentage of hydrolysis by ShHTL7, source data average (ShHTL7 [3]): 10.7551%
CC1=CC(OC(=O)N2CCN(C(=O)COc3ccc(Br)cc3C)CC2)N(C)C1=O (centres unmarked) [4h]	72.3 µM	78.3 µM	79.2 µM	76.6 µM	> 100 µM	> 100 µM	> 100 µM	> 100 µM	12.7 µM	14.6 µM	8.97 µM	12.1 µM	32.9 µM	39.4 µM	42.1 µM	38.1 µM	> 100 µM	> 100 µM	> 100 µM	> 100 µM	Kd (ShHTL7 [1]; [4]): 12.1 ± 0.94 µM; IC50 [2, 25]: 65.9 µM; IC50 [2, 26]: 81.2 µM; IC50 [2, 27]: 80.4 µM; IC50 [2, 28]: 75.8 µM; IC50 [2, 29]: > 100 µM; IC50 [2, 30]: > 100 µM; IC50 [2, 31]: > 100 µM; IC50 [2, 32]: > 100 µM; IC50 [2, 33]: 47.3 µM; IC50 [2, 34]: 41.8 µM; IC50 [2, 35]: 41.6 µM; IC50 [2, 36]: 43.6 µM; IC50 [2, 37]: > 100 µM; IC50 [2, 38]: > 100 µM; IC50 [2, 39]: > 100 µM; IC50 [2, 40]: > 100 µM; relative percentage of hydrolysis by ShHTL7, source data average (ShHTL7 [3]): 12.2513%
